Reference: the C3SDB collision cross section collection
Values joined by “and” are separate entries in the source; they are usually repeats but may differ in a detail not shown here. Equal values may be shown once.

Conditions: instrument: DT, single field, calibrated with ESI Low Concentration Tuning Mix (Agilent)

collision cross section (N2) ([M-H]-) | collision cross section (N2) ([M+H]+) | collision cross section (N2) ([M+Na]+) | SMILES | further results
120.9 Å² | – | – | O=C(O)CCC(=O)C(=O)O [OXOGLUTARATE] | –
– | – | 173.2 Å² | CCCCCCCCCCCCCCCC(=O)O [PALMITATE] | –
– | 129.9 Å² | – | CC(C)(CO)[C@@H](O)C(=O)NCCC(=O)O [PANTOTHENATE] | –
175.6 Å² | – | – | CCCCCCCCCCC/C=C\CCCCC(=O)[O-] [PETROSELINATE] | –
127.5 Å² | – | – | N[C@@H](COP(=O)(O)O)C(=O)O [PHOSPHOSERINE] | collision cross section (N2) ([M+Na-2H]-): 135.1 Å²
195.4 Å² | 215.8 Å² | – | O=P(O)(O)OC1C(OP(=O)(O)O)C(OP(=O)(O)O)C(OP(=O)(O)O)C(OP(=O)(O)O)C1OP(=O)(O)O (stereo unspecified) [PHYTATE] | collision cross section (N2) ([M+Na-2H]-): 201.3 Å²
128.3 Å² and 128.9 Å² | 127.7 Å² and 128 Å² | 138.8 Å² and 139.4 Å² | O=C(O)C1CCCCN1 (stereo unspecified) [PIPECOLATE] | –
114.3 Å² | 121.9 Å² | – | c1ncc2[nH]cnc2n1 [PURINE] | –
129 Å² | 131.4 Å² | 142.8 Å² | Cc1ncc(CO)c(C=O)c1O [PYRIDOXAL] | –
113.8 Å² | – | – | O=C(O)c1ccc[nH]1 [PYRROLE-2-CARBOXYLATE] | –
126.6 Å² | 132.3 Å² | – | O=C(O)c1cccnc1C(=O)O [QUINOLINATE] | –

The next lines start with the molecule.

SMILES | collision cross section (N2) ([M-H]-) | collision cross section (N2) ([M+H]+) | collision cross section (N2) ([M+Na]+) | further results
NC(=O)C1=CN([C@@H]2O[C@H](COP(=O)(O)OP(=O)(O)OC[C@H]3O[C@@H](n4cnc5c(N)ncnc54)[C@H](OP(=O)(O)O)[C@@H]3O)[C@@H](O)[C@H]2O)C=CC1 [NADPH] | 246.7 Å² | – | – | collision cross section (N2) ([M+Na-H]+): 240.5 Å²; collision cross section (N2) ([M+]+): 232.2 Å²
NC(=O)c1ccc[n+]([C@@H]2O[C@H](COP(=O)(O)OP(=O)(O)OC[C@H]3O[C@@H](n4cnc5c(N)ncnc54)[C@H](OP(=O)(O)O)[C@@H]3O)[C@@H](O)[C@H]2O)c1 [NADP] | 230.7 Å² and 230.9 Å² | 232.6 Å² | 240.9 Å² | collision cross section (N2) ([M+H2O-H]-): 243.9 Å²; collision cross section (N2) ([M+Na-2H]-): 231.5 Å² and 231.8 Å²
CCCCCCCC/C=C\CCCCCCCCCCCCCC(=O)[O-] [NERVONATE] | 197.5 Å² | – | 204.4 Å² | –
NC(=O)c1ccc[n+]([C@@H]2O[C@H](COP(=O)([O-])O)[C@@H](O)[C@H]2O)c1 [NICOTINAMIDE MONONUCLEOTIDE] | – | 166 Å² | – | –
Nc1ncnc2c1ncn2[C@@H]1O[C@H](COP(=O)(O)OP(=O)([O-])OC[C@H]2O[C@@H]([n+]3cccc(C(=O)O)c3)[C@H](O)[C@@H]2O)[C@@H](O)[C@H]1OP(=O)(O)O [NICOTINIC ACID ADENINE DINUCLEOTIDE PHOSPHATE] | 230.3 Å² | 230.4 Å² | – | –
NC[C@H](O)c1ccc(O)c(O)c1 [NORADRENALINE] | 134.2 Å² | – | – | collision cross section (N2) ([M-H2O+H]+): 137.2 Å²
CCCC[C@H](N)C(=O)O [NORLEUCINE] | 132 Å² | 136 Å² | – | –
NCCCNCCCN [NORSPERMIDINE] | – | 127.6 Å² | 132.4 Å² | –
CC(=O)OC[C@H](N)C(=O)O [O-ACETYLSERINE] | – | 130.5 Å² | – | –
NCCOP(=O)(O)O [O-PHOSPHOETHANOLAMINE] | 123.2 Å² | – | – | –
N[C@@H](COP(=O)(O)O)C(=O)O [O-PHOSPHOSERINE] | – | – | 140.8 Å² | –
N[C@@H](CCOC(=O)CCC(=O)O)C(=O)O [O-SUCCINYL-HOMOSERINE] | – | 145.9 Å² | 145.7 Å² | collision cross section (N2) ([M+Na-2H]-): 145.8 Å²
NC[C@H](O)c1ccc(O)cc1 [P-OCTOPAMINE] | – | – | 147.3 Å² | –
